{"source": "patent US20240358693A1", "about": "“METHODS OF TREATING PAIN” (Aisa Pharma, Inc., priority 2023, published 2024)", "system": "participants with SSc-RP", "assay": "Scleroderma Health Assessment Questionnaire (SHAQ): disability indices and visual analog scales", "assay_type": "in vivo, human", "settings": "for SHAQ Visual Analogue Scale - Overall Disease Severity, Median / SHAQ Visual Analogue Scale - Pain, Mean / SHAQ Visual Analogue Scale - Pain, Median / SHAQ Visual Analogue Scale - Raynaud's, Mean / SHAQ Visual Analogue Scale - Raynaud's, Median / SHAQ Visual Analogue Scale - Breathing Problems, Mean / SHAQ Visual Analogue Scale - Breathing Problems, Median / SHAQ Visual Analogue Scale - Finger Ulcers, Mean / SHAQ Visual Analogue Scale - Finger Ulcers, Median / SHAQ Visual Analogue Scale - Intestinal Problems, Mean / SHAQ Visual Analogue Scale - Intestinal Problems, Median / SHAQ Visual Analogue Scale - Overall Disease Severity, Mean: In-Clinic Visit (Day 12), PP Population Part A", "how_it_was_run": "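Participants with SSc-RP completed the SHAQ at screening and each in-clinic visit. Standard and alternative disability indices (eight categories, 0–3; standard adjusts for aids/assistance) plus Raynaud's VAS on interference over the past 7 days. Reported as absolute change from baseline to end of each dosing period.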", "key": {"[1]": {"settings": "Pooled Cilnidipine 10 mg and Cilnidipine 10 mg + Tadalafil 5 mg (N = 9)"}, "[2]": {"settings": "Pooled Cilnidipine 10 mg and Cilnidipine 10 mg + Tadalafil 5 mg (N = 9), Subject 01-110 score excluded"}, "[3]": {"settings": "Pooled Cilnidipine 20 mg and Cilnidipine 20 mg + Tadalafil 5 mg (N = 8)"}, "[4]": {"settings": "Modified ITT, Part A, dose Cilnidipine 10 mg, Tadalafil 5 mg, or 10 mg + 5 mg"}, "[5]": {"settings": "Modified ITT, Part A, dose Cilnidipine 20 mg, or 20 mg + Tadalafil 5 mg"}}, "data": [{"smiles": "COCCOC(=O)C1=C(C)NC(C)=C(C(=O)OC/C=C/c2ccccc2)C1c1cccc([N+](=O)[O-])c1", "note": "(stereo not shown) [Cilnidipine, cilnidipine]", "values": [{"measurement": "SHAQ Visual Analogue Scale - Overall Disease Severity, Median", "setting": "[1]", "value": 1.900}, {"measurement": "SHAQ Visual Analogue Scale - Pain, Mean", "setting": "[1]", "value": 2.644}, {"measurement": "SHAQ Visual Analogue Scale - Pain, Median", "setting": "[1]", "value": 2.900}, {"measurement": "SHAQ Visual Analogue Scale - Raynaud's, Mean", "setting": "[1]", "value": 2.319}, {"measurement": "SHAQ Visual Analogue Scale - Raynaud's, Median", "setting": "[1]", "value": 2.600}, {"measurement": "SHAQ Visual Analogue Scale - Breathing Problems, Mean", "setting": "[2]", "value": 1.375}, {"measurement": "SHAQ Visual Analogue Scale - Breathing Problems, Median", "setting": "[2]", "value": 0.000}, {"measurement": "SHAQ Visual Analogue Scale - Breathing Problems, Mean", "setting": "[3]", "value": 1.400}, {"measurement": "SHAQ Visual Analogue Scale - Breathing Problems, Median", "setting": "[3]", "value": 0.450}, {"measurement": "SHAQ Visual Analogue Scale - Finger Ulcers, Mean", "setting": "[3]", "value": 1.171}, {"measurement": "SHAQ Visual Analogue Scale - Finger Ulcers, Median", "setting": "[3]", "value": 0.000}, {"measurement": "SHAQ Visual Analogue Scale - Intestinal Problems, Mean", "setting": "[3]", "value": 1.013}, {"measurement": "SHAQ Visual Analogue Scale - Intestinal Problems, Median", "setting": "[3]", "value": 0.100}, {"measurement": "SHAQ Visual Analogue Scale - Overall Disease Severity, Mean", "setting": "[3]", "value": 1.938}, {"measurement": "SHAQ Visual Analogue Scale - Overall Disease Severity, Median", "setting": "[3]", "value": 1.300}, {"measurement": "SHAQ Visual Analogue Scale - Pain, Mean", "setting": "[3]", "value": 2.288}, {"measurement": "SHAQ Visual Analogue Scale - Pain, Median", "setting": "[3]", "value": 2.100}, {"measurement": "SHAQ Visual Analogue Scale - Raynaud's, Mean", "setting": "[3]", "value": 1.688}, {"measurement": "SHAQ Visual Analogue Scale - Raynaud's, Median", "setting": "[3]", "value": 0.850}, {"measurement": "SHAQ Visual Analogue Scale - Breathing Problems, Mean", "setting": "Pooled Cilnidipine (N = 8)", "value": 1.213}, {"measurement": "SHAQ Visual Analogue Scale - Breathing Problems, Median", "setting": "Pooled Cilnidipine (N = 8)", "value": 0.200}, {"measurement": "SHAQ Visual Analogue Scale - Finger Ulcers, Mean", "setting": "Pooled Cilnidipine (N = 8)", "value": 0.463}, {"measurement": "SHAQ Visual Analogue Scale - Finger Ulcers, Median", "setting": "Pooled Cilnidipine (N = 8)", "value": 0.000}, {"measurement": "SHAQ Visual Analogue Scale - Intestinal Problems, Mean", "setting": "Pooled Cilnidipine (N = 8)", "value": 0.975}, {"measurement": "SHAQ Visual Analogue Scale - Intestinal Problems, Median", "setting": "Pooled Cilnidipine (N = 8)", "value": 0.300}, {"measurement": "SHAQ Visual Analogue Scale - Overall Disease Severity, Mean", "setting": "Pooled Cilnidipine (N = 8)", "value": 1.475}, {"measurement": "SHAQ Visual Analogue Scale - Overall Disease Severity, Median", "setting": "Pooled Cilnidipine (N = 8)", "value": 1.300}, {"measurement": "SHAQ Visual Analogue Scale - Pain, Mean", "setting": "Pooled Cilnidipine (N = 8)", "value": 1.875}, {"measurement": "SHAQ Visual Analogue Scale - Pain, Median", "setting": "Pooled Cilnidipine (N = 8)", "value": 1.550}, {"measurement": "SHAQ Visual Analogue Scale - Raynaud's, Mean", "setting": "Pooled Cilnidipine (N = 8)", "value": 1.900}, {"measurement": "SHAQ Visual Analogue Scale - Raynaud's, Median", "setting": "Pooled Cilnidipine (N = 8)", "value": 1.250}, {"measurement": "SHAQ Finger Ulcers, Baseline, Mean", "setting": "[4]", "value": 0.700}, {"measurement": "SHAQ Finger Ulcers, Baseline, Median", "setting": "[4]", "value": 0.500}, {"measurement": "SHAQ Finger Ulcers, In Clinic Visit (Day 12), Mean", "setting": "[4]", "value": 0.275}, {"measurement": "SHAQ Finger Ulcers, In Clinic Visit (Day 12), Median", "setting": "[4]", "value": 0.000}, {"measurement": "SHAQ Standard disability index, Baseline, Mean", "setting": "[4]", "value": 0.656}, {"measurement": "SHAQ Standard disability index, Baseline, Median", "setting": "[4]", "value": 0.563}, {"measurement": "SHAQ Standard disability index, In Clinic Visit (Day 12), Mean", "setting": "[4]", "value": 0.656}, {"measurement": "SHAQ Standard disability index, In Clinic Visit (Day 12), Median", "setting": "[4]", "value": 0.563}, {"measurement": "SHAQ Visual Analog Scale-Breathing Problems, Baseline, Mean", "setting": "[4]", "value": 1.875}, {"measurement": "SHAQ Visual Analog Scale-Breathing Problems, Baseline, Median", "setting": "[4]", "value": 0.000}, {"measurement": "SHAQ Visual Analog Scale-Breathing Problems, In Clinic Visit (Day 12), Mean", "setting": "[4]", "value": 1.575}, {"measurement": "SHAQ Visual Analog Scale-Breathing Problems, In Clinic Visit (Day 12), Median", "setting": "[4]", "value": 0.000}, {"measurement": "SHAQ Visual Analog Scale-Intestinal Problems, Baseline, Mean", "setting": "[4]", "value": 2.975}, {"measurement": "SHAQ Visual Analog Scale-Intestinal Problems, Baseline, Median", "setting": "[4]", "value": 2.550}, {"measurement": "SHAQ Visual Analog Scale-Intestinal Problems, In Clinic Visit (Day 12), Mean", "setting": "[4]", "value": 1.100}, {"measurement": "SHAQ Visual Analog Scale-Intestinal Problems, In Clinic Visit (Day 12), Median", "setting": "[4]", "value": 0.300}, {"measurement": "SHAQ Visual Analog Scale-Pain, Baseline, Mean", "setting": "[4]", "value": 1.975}, {"measurement": "SHAQ Visual Analog Scale-Pain, Baseline, Median", "setting": "[4]", "value": 2.150}, {"measurement": "SHAQ Visual Analog Scale-Pain, In Clinic Visit (Day 12), Mean", "setting": "[4]", "value": 1.875}, {"measurement": "SHAQ Visual Analog Scale-Pain, In Clinic Visit (Day 12), Median", "setting": "[4]", "value": 1.950}, {"measurement": "SHAQ Visual Analog Scale-Raynaud's, Baseline, Mean", "setting": "[4]", "value": 1.600}, {"measurement": "SHAQ Visual Analog Scale-Raynaud's, Baseline, Median", "setting": "[4]", "value": 1.000}, {"measurement": "SHAQ Visual Analog Scale-Raynaud's, In Clinic Visit (Day 12), Mean", "setting": "[4]", "value": 1.925}, {"measurement": "SHAQ Visual Analog Scale-Raynaud's, In Clinic Visit (Day 12), Median", "setting": "[4]", "value": 1.700}, {"measurement": "SHAQ alternative disability index, Baseline, Mean", "setting": "[4]", "value": 0.500}, {"measurement": "SHAQ alternative disability index, Baseline, Median", "setting": "[4]", "value": 0.438}, {"measurement": "SHAQ alternative disability index, In Clinic Visit (Day 12), Mean", "setting": "[4]", "value": 0.563}, {"measurement": "SHAQ alternative disability index, In Clinic Visit (Day 12), Median", "setting": "[4]", "value": 0.500}, {"measurement": "SHAQ Finger Ulcers, Baseline, Mean", "setting": "[5]", "value": 1.800}, {"measurement": "SHAQ Finger Ulcers, Baseline, Median", "setting": "[5]", "value": 0.300}]}]}
